# Patent publication US20090269795A1, “Mutant alpha4betadelta GABAA receptor and methods of treating anxiety or irritability” (priority 2007, published 2009)
# Key:
# α5β2/3γ2 receptors = test: Whole cell patch clamp of GABA-gated current, recombinant receptors in HEK-293 cells; assay type: cell-based, rat; details: 30 nM THP
# From the text: (§1) Recombinant receptors: Transfection—Plasmids obtained from S. Vicini (rat α1, α5, β2, β3 and γ2), P. Whiting (human α4 and δ) and N. L. Harrison (mouse α4) were propagated in E coli DH5α and prepared using Qiagen Maxi- or Midi-prep kits. (Rat, mouse and human α1, β2, β3 and γ2 subunits are identical or nearly identical.) All receptors were transfected at a 1:1:1 ratio, except α1β2γ2 (1:1:5)^12, α4βδ (5:1:5)^13 and α4β2γ2 (5:1:1). HEK-293 cells were maintained in medium (DMEM:Ham's F-12 1:1) supplemented with 10% fetal calf serum at 37° C. in a humid 5% CO2 atmosphere.
# The pipet solution contained (in mM): N-methyl-D-glucamine chloride 120, Cs4BAPTA 5 (Calbiochem), Mg-ATP 5, and an ATP regeneration system (20 mM Tris phosphocreatine and creatine kinase). Internal [Cl^−] or the holding potential were varied, using gluconate as the anion, to alter the direction of Cl^− flow, corrected for the junction potential.
# HEK-293 cells were maintained in medium (DMEM:Ham's F-12 1:1) supplemented with 10% fetal calf serum at 37° C. in a humid 5% CO2 atmosphere.
# α1β2δ receptors = target: T1, α1β2δ receptors (Rattus norvegicus, UniProt P62813+P63138); test: as above; assay type: cell-based, rat α1, rat β2, human δ; details: 30 nM THP
# T1 construct: expressed in transfected cells; host or cells: HEK-293
# From the text: as §1, with “atmosphere. Cells were transfected using calcium phosphate or Polyfect (Qiagen) and co-transfected with enhanced green fluorescent protein (ratio of DNA to eGFP was 6:1 or 10:1 depending on the DNA concentration) for visualization. α4-containing GABAA receptors required 2-3 d for maximal levels of expression; all other receptors were recorded 1-2 d after transfection. Because mouse α4 and human α4-containing receptors yielded the same results, the currents were averaged together.” for “atmosphere.”
# Whole cell patch clamp recording—GABA-gated currents were recorded at room temperature (20-22° C.) at a holding potential of −50 mV^14. […] Currents were recorded using an Axopatch 1D amplifier (Axon Instruments) filtered at 2 kHz (four-pole Bessel filter) and detected at 10 kHz (pClamp 5.1). […]
# T1 sequence (P62813 28-455): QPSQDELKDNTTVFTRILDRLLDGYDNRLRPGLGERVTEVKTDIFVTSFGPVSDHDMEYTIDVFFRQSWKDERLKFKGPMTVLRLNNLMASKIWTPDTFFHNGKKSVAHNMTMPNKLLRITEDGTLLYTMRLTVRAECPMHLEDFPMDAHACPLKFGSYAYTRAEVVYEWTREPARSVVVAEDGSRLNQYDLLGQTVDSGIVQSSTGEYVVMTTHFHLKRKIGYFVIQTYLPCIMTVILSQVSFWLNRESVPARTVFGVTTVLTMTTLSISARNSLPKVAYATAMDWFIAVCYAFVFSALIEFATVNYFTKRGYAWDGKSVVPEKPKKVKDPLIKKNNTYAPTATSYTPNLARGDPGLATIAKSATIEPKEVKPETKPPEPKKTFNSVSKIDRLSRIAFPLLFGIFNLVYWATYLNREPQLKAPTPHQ
# T1 sequence (P63138 25-474 limits assumed): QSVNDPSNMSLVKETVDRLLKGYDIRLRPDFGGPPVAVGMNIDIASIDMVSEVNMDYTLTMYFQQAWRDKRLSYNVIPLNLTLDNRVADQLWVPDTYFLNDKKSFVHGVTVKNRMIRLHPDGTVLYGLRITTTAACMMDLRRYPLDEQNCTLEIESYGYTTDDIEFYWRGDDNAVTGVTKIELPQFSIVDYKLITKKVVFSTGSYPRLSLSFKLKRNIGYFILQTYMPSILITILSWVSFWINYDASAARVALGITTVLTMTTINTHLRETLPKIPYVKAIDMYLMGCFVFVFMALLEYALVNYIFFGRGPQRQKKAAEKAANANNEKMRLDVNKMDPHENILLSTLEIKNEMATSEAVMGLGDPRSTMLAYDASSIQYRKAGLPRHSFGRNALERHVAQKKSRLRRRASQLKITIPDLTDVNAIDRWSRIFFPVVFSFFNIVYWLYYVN
# T1 sequence (O14764 25-452 partner): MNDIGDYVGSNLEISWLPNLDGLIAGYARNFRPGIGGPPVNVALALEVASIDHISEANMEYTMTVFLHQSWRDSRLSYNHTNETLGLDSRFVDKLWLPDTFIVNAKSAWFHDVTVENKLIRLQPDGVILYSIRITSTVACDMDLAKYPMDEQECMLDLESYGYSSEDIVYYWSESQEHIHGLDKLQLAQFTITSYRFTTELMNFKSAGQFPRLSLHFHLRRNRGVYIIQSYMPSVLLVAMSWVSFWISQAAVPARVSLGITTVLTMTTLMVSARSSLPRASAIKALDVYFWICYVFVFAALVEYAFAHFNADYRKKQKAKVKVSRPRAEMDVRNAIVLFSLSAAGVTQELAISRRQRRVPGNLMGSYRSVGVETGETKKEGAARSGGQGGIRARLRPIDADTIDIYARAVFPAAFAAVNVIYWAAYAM
smiles,measurement,setting,value
"CC(=O)[C@H]1CC[C@H]2[C@@H]3CC[C@H]4C[C@H](O)CC[C@]4(C)[C@H]3CC[C@]12C [THP, 3α-OH-5α[β]-pregnan-20-one]",effect on outward current,α5β2/3γ2 receptors,either increased or had no effect
same,effect on outward current,α1β2δ receptors,either increased or had no effect
